30 molecules from US11013726B2 (Arbutus Biopharma Corporation, priority 2016, dated 2021) can be followed below.

In one experiment the test system is HBsAg. The experiment is described as follows: HBsAg assay. In kind it is cell-based, hepatitis B virus. As to conditions: Hepatitis B virus, HepG2.2.15, 144 h, read-out: sAg EC50, μM, HepG2.2.15 cells, day 6. Summed up: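 HepG2.2.15 cells were treated with serially diluted compounds (0.5% DMSO), with medium and compound renewed after 2-3 days. Secreted HBsAg measured at day 6 by chemiluminescence immunoassay; EC50 from dose-response curves. Viability assessed in parallel by CellTiter-Glo.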
For `CCC1(C(C)C)Cc2cc(OCCCOC)c(OC)nc2-c2cc(=O)c(C(=O)O)cn21` (stereo not drawn) [Example 163, 6-Ethyl-6-isopropyl-2-methoxy-3-(3-methoxypropoxy)-10-oxo-5,10-dihydro-6H-pyrido[1,2-h][1,7]naphthyridine-9-carboxylic acid], the EC50 amounted to 0.13 µM. As for `CC(C)[C@@H]1COc2cc(OCCCNC(=O)OC(C)(C)C)c(C3CC3)cc2-c2cc(=O)c(C(=O)O)cn21` [Example 53, (R)-3-(3-((tert-Butoxycarbonyl)amino)propoxy)-2-cyclopropyl-7-isopropyl-11-oxo-6,7-dihydro-11H-benzo[f]pyrido[1,2-d][1,4]oxazepine-10-carboxylic acid], the EC50 was 0.013 µM. For `C=C1COc2cc3c(cc2OC1)-c1cc(=O)c(CO)cn1C(C(C)(C)C)C3` (stereo not drawn) [Example 101, 6-(Tert-butyl)-3-(hydroxymethyl)-1-methylene-6,7,11,12-tetrahydro-2H,10H-[1,4]dioxepino[2,3-g]pyrido[2,1-a]isoquinolin-2-one], the EC50 turned out to be 5.8 µM.

On to `COCCCOc1cc2c(nc1Cl)-c1cc(=O)c(C(=O)O)cn1C1C(CCC1(C)C)O2` (stereo not drawn) [Example 81, 6-Chloro-7-(3-methoxypropoxy)-12,12-dimethyl-3-oxo-9a,11,12,12a-tetrahydro-3H,10H-cyclopenta[b]dipyrido[1,2-d:2′,3′-f][1,4]oxazepine-2-carboxylic acid], for which the EC50 worked out at 0.011 µM. Still for that read-out and setting: for `C=Cc1cc2c(cc1OCCCOC)OC[C@@H](C(C)C)n1cc(C(=O)O)c(=O)cc1-2` [Example 48, (R)-7-Isopropyl-3-(3-methoxypropoxy)-11-oxo-2-vinyl-6,7-dihydro-11H-benzo[f]pyrido[1,2-d][1,4]oxazepine-10-carboxylic acid] the value was 0.004 µM. Consider `CC(C)[C@@H]1COc2cc(O)c(Cl)nc2-c2cc(=O)c(C(=O)O)cn21` [Example 78, (R)-2-Chloro-3-hydroxy-7-isopropyl-11-oxo-6,7-dihydro-11H-dipyrido[1,2-d:2′,3′-f][1,4]oxazepine-10-carboxylic acid], for which the EC50 turned out to be 5 µM.

As to `CCc1cc2c(cc1OCCCOC)OC[C@@H](C(C)C)n1cc(C(=O)O)c(=O)cc1-2` [Example 47, (R)-2-Ethyl-7-isopropyl-3-(3-methoxypropoxy)-11-oxo-6,7-dihydro-11H-benzo[f]pyrido[1,2-d][1,4]oxazepine-10-carboxylic acid], the EC50 was 0.006 µM. For the molecule `CC(C)[C@@H]1COc2cc(OCC3CC3)c(Cl)cc2-c2cc(=O)c(C(=O)O)cn21` [Example 35, (R)-2-Chloro-3-(cyclopropylmethoxy)-7-isopropyl-11-oxo-6,7-dihydro-11H-benzo[f]pyrido[1,2-d][1,4]oxazepine-10-carboxylic acid], the EC50 came out at 0.033 µM. On to `COc1cc2c(n(C)c1=O)-c1cc(=O)c(C(=O)O)cn1[C@H](C(C)C)C2` [Example 165, (S)-6-Isopropyl-3-methoxy-1-methyl-2,10-dioxo-2,5,6,10-tetrahydro-1H-pyrido[1,2-h][1,7]naphthyridine-9-carboxylic acid], for which the EC50 came out at 4.3 µM. On to `COCC1(COC)COc2cc3c(cc2OC1)-c1cc(=O)c(C(=O)O)cn1C(C(C)(C)C)C3` (stereo not drawn) [Example 99, 6-(Tert-butyl)-11,11-bis(methoxymethyl)-2-oxo-6,7,11,12-tetrahydro-2H,10H-[1,4]dioxepino[2,3-g]pyrido[2,1-a]isoquinoline-3-carboxylic], for which the EC50 is 0.49 µM. On to `CCc1cc2c(cc1OCC1CC1)OC[C@@H](C(C)C)n1cc(C(=O)O)c(=O)cc1-2` [Example 50, (R)-3-(Cyclopropylmethoxy)-2-ethyl-7-isopropyl-11-oxo-6,7-dihydro-11H-benzo[f]pyrido[1,2-d][1,4]oxazepine-10-carboxylic acid], for which the EC50 stood at 0.011 µM.

Consider `COc1cc2c(cc1OC)-c1cc(=O)c(C(=O)O)cn1C(C(C)C)CC2` (stereo not drawn) [Example 19, 6-Isopropyl-10,11-dimethoxy-2-oxo-2,6,7,8-tetrahydrobenzo[c]pyrido[1,2-a]azepine-3-carboxylic acid], for which the EC50 is 0.027 µM.

For the molecule `CC(C)[C@@H]1CCc2cc3c(nc2-c2cc(=O)c(C(=O)O)cn21)OCCCO3` [Example 169, (S)-6-Isopropyl-2-oxo-2,6,7,8,12,13-hexahydro-111-[1,4]dioxepino[2′,3′:5,6]pyrido[2,3-c]pyrido[1,2-a]azepine-3-carboxylic acid], the EC50 is 2.2 µM. Still for that read-out and setting: as for `COCCCOc1cc2c(nc1Cl)-c1cc(=O)c(C(=O)O)cn1[C@H](CCO)CO2` [Example 80, (R)-2-Chloro-7-(2-hydroxyethyl)-3-(3-methoxypropoxy)-11-oxo-6,7-dihydro-11H-dipyrido[1,2-d:2′,3′-f][1,4]oxazepine-10-carboxylic acid], the figure is 0.26 µM; as for `COCC1COc2cc3c(cc2OC1)-c1cc(=O)c(C(=O)O)cn1C(C(C)(C)C)C3` (stereo not drawn) [Example 96, 6-(Tert-butyl)-11-(methoxymethyl)-2-oxo-6,7,11,12-tetrahydro-2H,10H-[1,4]dioxepino[2,3-g]pyrido[2,1-a]isoquinoline-3-carboxylic acid], 0.14 µM; as for `Cc1cc2c(cc1OCC(C)C)OC[C@@H](C(C)C)n1cc(C(=O)O)c(=O)cc1-2` [Example 51, (R)-3-Isobutoxy-7-isopropyl-2-methyl-11-oxo-6,7-dihydro-11H-benzo[f]pyrido[1,2-d][1,4]oxazepine-10-carboxylic acid], 0.015 µM. In the case of `COCCCOc1cc2c(cc1Cl)-c1cc(=O)c(N3C(=O)CCC3=O)cn1C(C(C)(C)C)C2` (stereo not drawn) [Example 125, 1-[6-Tert-butyl-10-chloro-9-(3-methoxypropoxy)-2-oxo-6H,7H-pyrido[2,1-a]isoquinolin-3-yl]pyrrolidine-2,5-dione], the EC50 turned out to be 12 µM. Take `COCCCOc1cc2c(cc1Cl)-c1cc(=O)c(-c3ccccn3)cn1C(C(C)(C)C)C2` (stereo not drawn) [Example 133, 6-(Tert-butyl)-10-chloro-9-(3-methoxypropoxy)-3-(pyridin-2-yl)-6,7-dihydro-2H-pyrido[2,1-a]isoquinolin-2-one]: the EC50 came out at 4 µM. For `CC(C)[C@@H]1COc2cc(OCC(F)(F)F)c(Cl)cc2-c2cc(=O)c(C(=O)O)cn21` [Example 34, (R)-2-Chloro-7-isopropyl-11-oxo-3-(2,2,2-trifluoroethoxy)-6,7-dihydro-11H-benzo[f]pyrido[1,2-d][1,4]oxazepine-10-carboxylic acid], the EC50 was determined as 0.086 µM. Regarding `COCCCOc1cc2c(cc1Cl)-c1cc(=O)c(C(=O)O)cn1[C@@H](C(C)C)CO2` [Example 28, (S)-2-Chloro-7-isopropyl-3-(3-methoxypropoxy)-11-oxo-6,7-dihydro-11H-benzo[f]pyrido[1,2-d][1,4]oxazepine-10-carboxylic acid], the EC50 worked out at 0.46 µM.

Take `COCCCOc1cc2c(nc1OC)-c1cc(=O)c(C(=O)O)cn1[C@@H](C(C)C)C2` (single isomer, unassigned) [Example 21]: the EC50 amounted to 0.53 µM.

On to `COCCCOc1cc2c(nc1OC)-c1cc(=O)c(C(=O)NS(C)(=O)=O)cn1[C@H](C(C)C)C2` [Example 118, (S)-6-Isopropyl-2-methoxy-3-(3-methoxypropoxy)-N-(methylsulfonyl)-10-oxo-5,10-dihydro-6H-pyrido[1,2-h][1,7]naphthyridine-9-carboxamide], for which the EC50 was 0.051 µM. As to `COCCCOc1cc2c(cc1Cl)-c1cc(=O)c(P(=O)(O)O)cn1C(C(C)(C)C)C2` (stereo not drawn) [Example 107, (6-(Tert-butyl)-10-chloro-9-(3-methoxypropoxy)-2-oxo-6,7-dihydro-2H-pyrido[2,1-a]isoquinolin-3-yl)phosphonic acid], the EC50 was 2.5 µM. The same measure, in the same setting: for `COCCCOc1cc2c(nc1OC)-c1cc(=O)c(-c3nnc(C)s3)cn1[C@H](C(C)C)C2` [Example 108, (S)-6-Isopropyl-2-methoxy-3-(3-methoxypropoxy)-9-(5-methyl-1,3,4-thiadiazol-2-yl)-5,6-dihydro-10H-pyrido[1,2-h][1,7]naphthyridin-10-one] the value was 0.045 µM; for `COCCCOc1cc2c(cc1Cl)-c1cc(=O)c(N(c3ncccn3)c3ncccn3)cn1C(C(C)(C)C)C2` (stereo not drawn) [Example 130, 6-(Tert-butyl)-10-chloro-3-(di(pyrimidin-2-yl)amino)-9-(3-methoxypropoxy)-6,7-dihydro-2H-pyrido[2,1-a]isoquinolin-2-one], 0.91 µM; for `CC(C)[C@@H]1CCc2cc3c(nc2-c2cc(=O)c(C(=O)O)cn21)OCCO3` [Example 170, (S)-6-Isopropyl-2-oxo-2,6,7,8,11,12-hexahydro-[1,4]dioxino[2′,3′:5,6]pyrido[2,3-c]pyrido[1,2-a]azepine-3-carboxylic acid e], 5 µM.

As to `CC(C)COc1cc2c(cc1C1CC1)-c1cc(=O)c(C(=O)O)cn1[C@H](C(C)C)CO2` [Example 44, (R)-2-Cyclopropyl-3-isobutoxy-7-isopropyl-11-oxo-6,7-dihydro-11H-benzo[f]pyrido[1,2-d][1,4]oxazepine-10-carboxylic acid], the EC50 came out at 0.006 µM. Consider `CCC1COc2cc(OC)c(Cl)cc2-c2cc(=O)c(C(=O)O)cn21` (stereo not drawn) [Example 8, 2-Chloro-7-ethyl-3-methoxy-11-oxo-6,7-dihydro-11H-benzo[f]pyrido[1,2-d][1,4]oxazepine-10-carboxylic acid], for which the EC50 came to 0.42 µM. Consider `COCCCOc1cc2c(cc1Cl)-c1cc(=O)c(NC(=O)OCC(C)(C)C)cn1C(C(C)(C)C)C2` (stereo not drawn) [Example 124, Neopentyl (6-(tert-butyl)-10-chloro-9-(3-methoxypropoxy)-2-oxo-6,7-dihydro-2H-pyrido[2,1-a]isoquinolin-3-yl)carbamate], for which the EC50 was 16 µM.

Still in this experiment, the particulars now being: read-out: sAg EC50; HepG2.2.15 cells, day 6.
`COc1cc2c(nc1OC)-c1cc(=O)c(C(=O)O)cn1C(C(C)C)C2` (single isomer, unassigned) [Example 24, 6-Isopropyl-2,3-dimethoxy-10-oxo-5,10-dihydro-6H-pyrido[1,2-h][1,7]naphthyridine-9-carboxylic acid]: the EC50 came to 0.25 µM.

As a reminder, the EC50 is the concentration needed to bring the measured effect to its halfway point.
